Data as given in US9745305B2, “Modulators of methyl modifying enzymes, compositions and uses thereof” (Constellation Pharmaceuticals, Inc., priority 2013, dated 2017).

Experiments:
[1] = target: Y641N EZH2 (Homo sapiens, UniProt Q15910, Y641N); experiment: Assay for Y641N EZH2 (as the EZH2 assay, H3K27Me2 oligonucleosomes as substrate); format: biochemical; settings: Y641N EZH2 mutant, reconstituted H3K27Me2 oligonucleosomes as substrate
Procedure: (§1) EZH2 Assay: Assays were carried out by mixing rPRC2 together with biotinylated oligonucleosome substrates in the presence of the radio-labeled enzyme co-factor, S-adenosyl-L-methionine (^3H SAM) (Perkin Elmer) and monitoring the enzymatically mediated transfer of tritiated methyl groups from ^3H SAM to histone lysine residues. The amount of resulting tritiated methyl histone product was measured by first capturing the biotinylated oligonucleosomes in streptavidin (SAV) coated FlashPlates (Perkin Elmer), followed by a wash step to remove unreacted ^3H SAM, and then counting on a TopCount NXT 384 well plate scintillation counter (Perkin Elmer). The final assay conditions for EZH2 were as follows: 50 mM Tris Buffer pH 8.5, 1 mM DTT, 69 μM Brij-35 detergent, 5.0 mM MgCl2, 0.1 mg/mL BSA, 0.2 μM ^3H SAM, 0.2 μM biotinylated oligonucleosomes, 3.6 μM H3K27me3 peptide and 2 nM EZH2.
(§2) Compound IC50 measurements were obtained as follows: Compounds were first dissolved in 100% DMSO as 10 mM stock solutions. Ten point dose response curves were generated by dispensing varying amounts of the 10 mM compound solution in 10 wells of the 384 well plate (Echo; Labcyte), pure DMSO was then used to backfill the wells to insure all wells have the same amount of DMSO. A 12.5 μL volume of the HMT enzyme, H3K27me3 peptide and oligonucleosome substrate in assay buffer was added to each well of the assay plate using a Multidrop Combi (ThermoFisher). Compounds were pre-incubated with the enzyme for 20 min, followed by initiation of the methyltransferase reaction by addition of 12.5 μL of ^3H SAM in assay buffer (final volume=25 μL). The final concentrations of compounds ranged from a top default concentration of 80 μM down to 0.16 μM in ten 2-fold dilution steps. Reactions were carried out for 60 minutes and quenched with 20 μL per well of 1.96 mM SAH, 50 mM Tris pH 8.5, 200 mM EDTA. Stopped reactions were transferred to SAV coated Flashplates (Perkin Elmer), incubated for 120 min, washed with a plate washer, and then read on the TopCount NXT (1.0 min/well) to measure the amount of methyl histone product formed during the reaction. The amount of methyl histone product was compared with the amount of product formed in the 0% and 100% inhibition control wells allowing the calculation of % Inhibition in the presence of the individual compounds at various concentrations. IC50's were computed using a 4 parameter fit non-linear curve fitting software package (XLFIT, part of the database package, ActivityBase (IDBS)) where the four parameters were IC50, Hill slope, pre-transitional baseline (0% INH), and post-transitional baseline (100% INH); with the latter two parameters being fixed to zero and 100%, respectively, by default.
Assay for Y641N EZH2 was performed as above using reconstituted H3K27Me2 oligonucleosomes as substrate.

[2] = target: EZH2 (Homo sapiens, UniProt Q15910); experiment: EZH2 Assay (3H SAM methyl transfer, rPRC2, FlashPlate); format: biochemical; settings: rPRC2, biotinylated oligonucleosomes, 0.2 μM 3H SAM, 2 nM EZH2
Procedure: as §1, §2

[3] = system: H3K27me3 mark in Hela cells expressing wild type EZH2; experiment: H3K27me3 Alpha Hela Assay (AlphaLISA); format: cell-based; settings: Homo sapiens, 72 hrs, read-out: H3K27me3_Alpha_HeLa (EC50)
Procedure: H3K27me3 Alpha Hela Assay (AlphaLISA). Ten different doses of each test compound (in a series of 3-fold dilutions) were plated in duplicate 384-well tissue culture treated plates (Catalog #781080; Greiner Bio One; Monroe, N.C.). Hela cells grown in culture were trypsinized and counted using a Countess® cell counter (Catalog # C10281; Life Technologies, Grand Island, N.Y.). Cell were diluted to 67,000 cells per mL in 10% DMEM (Catalog #10569-010 Life Technologies, Grand Island, N.Y.) and 15 μL (1,000 cells) were plated into each well using the Biotek MicroFlo™ Select Dispenser (BioTek Instruments, Inc. Vermont, USA),) of the 384-well plate. Plates were incubated at 37° C./5% CO2 for 72 hrs. One of the duplicate plates was processed for HeLa assay and the other for viability.
To the plate processed for AlphaLISA was added 5 μL per well Cell-Histone Lysis buffer (1×) (Catalog # AL009F1 Perkin Elmer; Waltham, Mass.) and the plate was incubated at RT for 30 minutes on a plate shaker with low speed (Model#4625-Q Thermo Scientific; Waltham, Mass.). Then, 10 μL per well Histone Extraction buffer (catalog # AL009F2; Perkin Elmer; Waltham, Mass.) was added and the plate further incubated at RT for 20 min on plate shaker with low speed. To each well was then added 10 μL per well of a 5× mix of anti-K27me3 acceptor beads plus Biotinylated anti-Histone H3 (C-ter) Antibody (diluted to 3 nM final) (Catalog #AL118 Perkin Elmer; Waltham, Mass.). Dilution of the acceptor beads and then anti-Histone H3 was with 1× Histone Detection buffer (Catalog # AL009F3 Perkin Elmer; Waltham, Mass.) which was produced diluted from the 10× stock provided. The plate was sealed with an aluminum plate sealer and incubated at 23° C. for 60 min. We then added 10 μL 5× solution of Streptavidin Donor beads (Catalog #6760002 Perkin Elmer; Waltham, Mass.) (20 μg/mL final in 1× Histone Detection Buffer), sealed the plate with Aluminum plate sealer and incubated at 23° C. for 30 min. The plates were then read using an EnVision-Alpha Reader (model #2104 Perkin Elmer; Waltham, Mass.).
Data from both assays was analyzed using Assay Assistant (Constellation Pharmaceuticals In-house product) and Activity Base (IDBS Ltd, Surrey, UK) template. Data files were imported to Assay Assistant and assay conditions were specified. A unique Analysis ID was created and the data files exported to Activity Base. An analysis template was created on Activity Base to measure dose-dependent inhibition of H3K27me3 mark and cell viability respectively. Readout of DMSO wells were used to normalize the data. Resulting curves were fitted using Activity base software Model 205 (IDBS Ltd, Surrey, UK). The data was checked for quality, validated and integrated in excel format using SARview (IDBS Ltd, Surrey, UK).

Sequence of EZH2 (Q15910 whole entry): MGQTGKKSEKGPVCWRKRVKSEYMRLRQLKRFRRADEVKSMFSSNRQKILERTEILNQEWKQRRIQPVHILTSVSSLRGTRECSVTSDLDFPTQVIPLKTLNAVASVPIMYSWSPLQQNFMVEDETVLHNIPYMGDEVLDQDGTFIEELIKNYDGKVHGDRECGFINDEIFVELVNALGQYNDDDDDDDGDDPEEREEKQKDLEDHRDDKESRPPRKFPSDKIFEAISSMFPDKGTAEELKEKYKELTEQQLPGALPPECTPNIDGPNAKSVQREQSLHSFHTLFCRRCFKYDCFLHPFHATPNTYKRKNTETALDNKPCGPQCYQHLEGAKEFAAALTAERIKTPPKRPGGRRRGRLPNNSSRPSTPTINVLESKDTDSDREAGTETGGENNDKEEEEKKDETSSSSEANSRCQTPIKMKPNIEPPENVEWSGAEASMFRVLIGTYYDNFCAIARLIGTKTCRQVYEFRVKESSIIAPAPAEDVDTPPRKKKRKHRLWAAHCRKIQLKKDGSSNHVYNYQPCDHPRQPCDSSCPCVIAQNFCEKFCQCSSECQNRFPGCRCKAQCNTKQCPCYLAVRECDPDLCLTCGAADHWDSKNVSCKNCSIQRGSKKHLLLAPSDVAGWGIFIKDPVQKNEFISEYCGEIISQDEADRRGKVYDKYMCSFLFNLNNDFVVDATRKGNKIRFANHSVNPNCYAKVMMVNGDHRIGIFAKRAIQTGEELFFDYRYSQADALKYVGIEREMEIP
Sequence of EZH2 (O75530 whole entry partner): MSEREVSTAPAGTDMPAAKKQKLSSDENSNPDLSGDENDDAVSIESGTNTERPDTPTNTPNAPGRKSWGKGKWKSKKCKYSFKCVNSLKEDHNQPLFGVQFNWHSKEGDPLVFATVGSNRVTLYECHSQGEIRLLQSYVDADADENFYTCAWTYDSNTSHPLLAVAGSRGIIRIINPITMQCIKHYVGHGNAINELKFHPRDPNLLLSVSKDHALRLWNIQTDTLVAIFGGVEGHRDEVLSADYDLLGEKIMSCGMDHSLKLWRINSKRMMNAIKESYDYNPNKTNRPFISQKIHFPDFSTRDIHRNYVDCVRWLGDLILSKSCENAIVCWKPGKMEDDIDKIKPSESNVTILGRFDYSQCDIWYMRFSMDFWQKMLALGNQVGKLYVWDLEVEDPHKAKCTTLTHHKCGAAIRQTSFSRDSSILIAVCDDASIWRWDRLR
Sequence of EZH2 (Q15022 whole entry partner): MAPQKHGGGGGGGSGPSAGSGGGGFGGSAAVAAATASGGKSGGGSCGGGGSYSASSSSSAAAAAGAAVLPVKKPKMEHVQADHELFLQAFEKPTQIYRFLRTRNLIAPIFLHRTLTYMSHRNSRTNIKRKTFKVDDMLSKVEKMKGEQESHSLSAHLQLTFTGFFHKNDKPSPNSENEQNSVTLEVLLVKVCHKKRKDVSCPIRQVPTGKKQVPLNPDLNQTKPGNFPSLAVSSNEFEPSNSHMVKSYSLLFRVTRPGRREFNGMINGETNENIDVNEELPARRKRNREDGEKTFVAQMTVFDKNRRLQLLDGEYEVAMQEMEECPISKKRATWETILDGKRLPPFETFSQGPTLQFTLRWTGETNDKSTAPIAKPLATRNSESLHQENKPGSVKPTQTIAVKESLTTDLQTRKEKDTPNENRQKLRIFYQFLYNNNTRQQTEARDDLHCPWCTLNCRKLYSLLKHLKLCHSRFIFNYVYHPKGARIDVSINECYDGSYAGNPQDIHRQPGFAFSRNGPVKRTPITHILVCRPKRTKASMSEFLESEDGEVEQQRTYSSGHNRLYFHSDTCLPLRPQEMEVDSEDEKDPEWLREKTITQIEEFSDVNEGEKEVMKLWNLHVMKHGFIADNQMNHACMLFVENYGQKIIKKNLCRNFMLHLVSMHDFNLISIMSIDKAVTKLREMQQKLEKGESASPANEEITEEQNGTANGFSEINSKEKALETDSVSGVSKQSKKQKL
Sequence of Y641N EZH2 (Q15910 whole entry Y641N): as the sequence (Q15910 whole entry) above, with Y641N counted along it
Sequence of Y641N EZH2 (O75530 whole entry partner): as the sequence (O75530 whole entry partner) above
Sequence of Y641N EZH2 (Q15022 whole entry partner): as the sequence (Q15022 whole entry partner) above

IC50 [1] | IC50 [2] | EZH2 IC50 [2] | Y641N EZH2 IC50 [1] | EC50 [3] | Compound
100 to 1000 nM | < 100 nM |  |  |  | COc1cc(C)[nH]c(=O)c1CNC(=O)c1c(C)c(C(C)N(C)C(C)=O)n2ncccc12 (racemic) [Compound 104, (±)-N-((4-methoxy-6-methyl-2-oxo-1,2-dihydropyridin-3-yl)methyl)-6-methyl-7-(1-(N-methylacetamido)ethyl)pyrrolo[1,2-b]pyridazine-5-carboxamide]
100 to 1000 nM | < 100 nM |  |  |  | Cc1cc(C)c(CNC(=O)c2c(C)c(C(C)C3CCN(C)CC3)n3ncccc23)c(=O)[nH]1 (racemic) [Compound 124, (±)-N-((4,6-dimethyl-2-oxo-1,2-dihydropyridin-3-yl)methyl)-6-methyl-7-(1-(1-methylpiperidin-4-yl)ethyl)pyrrolo[1,2-b]pyridazine-5-carboxamide]
 | < 100 nM |  | *(0.5 μM) |  | CCCc1cc(C)[nH]c(=O)c1CNC(=O)c1c(C)c(-c2c(C)noc2C)n2ncccc12 [Compound 123, 7-(3,5-dimethylisoxazol-4-yl)-6-methyl-N-((6-methyl-2-oxo-4-propyl-1,2-dihydropyridin-3-yl)methyl)pyrrolo[1,2-b]pyridazine-5-carboxamide]
 | 100 to 1000 nM |  |  |  | Cc1cc(C)c(CNC(=O)c2c(C)c(C(=O)N3CCOCC3)n3ncccc23)c(=O)[nH]1 [Compound 125, N-((4,6-dimethyl-2-oxo-1,2-dihydropyridin-3-yl)methyl)-6-methyl-7-(morpholine-4-carbonyl)pyrrolo[1,2-b]pyridazine-5-carboxamide]
 | < 100 nM |  |  | 2000 to 10000 nM | COc1ccc2c(C(=O)NCc3c(C)cc(C)[nH]c3=O)c(C)c(C(C)C3CCN(CC(C)(C)O)CC3)n2n1 (stereo not drawn) [Compound 127, N-((4,6-dimethyl-2-oxo-1,2-dihydropyridin-3-yl)methyl)-7-(1-(1-(2-hydroxy-2-methylpropyl)piperidin-4-yl)ethyl)-2-methoxy-6-methylpyrrolo[1,2-b]pyridazine-5-carboxamide]

Further lines, the molecule ahead of its results:

Compound | IC50 [1] | IC50 [2] | EZH2 IC50 [2] | Y641N EZH2 IC50 [1] | EC50 [3]
COc1cc(C)[nH]c(=O)c1CNC(=O)c1c(C)c(C(C)c2cccn(C)c2=O)n2ncccc12 (racemic) [Compound 111, (±)-N-((4-methoxy-6-methyl-2-oxo-1,2-dihydropyridin-3-yl)methyl)-6-methyl-7-(1-(1-methyl-2-oxo-1,2-dihydropyridin-3-yl)ethyl)pyrrolo[1,2-b]pyridazine-5-carboxamide] | 1000 to 10000 nM |  | *(0.25 μM) |  | 
CCS(=O)(=O)N1CCC(C(C)c2c(C)c(C(=O)NCc3c(OC)cc(C)[nH]c3=O)n3ccncc23)CC1 (racemic) [Compound 117, (±)-8-(1-(1-(ethylsulfonyl)piperidin-4-yl)ethyl)-N-((4-methoxy-6-methyl-2-oxo-1,2-dihydropyridin-3-yl)methyl)-7-methylpyrrolo[1,2-a]pyrazine-6-carboxamide] | < 100 nM | < 100 nM |  |  | 
CCS(=O)(=O)N1CCC(C(C)c2c(C)c(C(=O)NCc3c(OC)cc(C)[nH]c3=O)c3cnccn23)CC1 (racemic) [Compound 119, (±)-6-(1-(1-(ethylsulfonyl)piperidin-4-yl)ethyl)-N-((4-methoxy-6-methyl-2-oxo-1,2-dihydropyridin-3-yl)methyl)-7-methylpyrrolo[1,2-a]pyrazine-8-carboxamide] | < 100 nM | < 100 nM |  |  | 
COc1cc(C)[nH]c(=O)c1CNC(=O)c1c(C)c(C(C)=O)n2ncccc12 [Compound 100, 7-acetyl-N-((4-methoxy-6-methyl-2-oxo-1,2-dihydropyridin-3-yl)methyl)-6-methylpyrrolo[1,2-b]pyridazine-5-carboxamide] | > 10000 nM | 1000 to 10000 nM |  |  | 
COc1cc(C)[nH]c(=O)c1CNC(=O)c1c(C)c(-c2ccnn2C)n2ncccc12 [Compound 109, N-((4-methoxy-6-methyl-2-oxo-1,2-dihydropyridin-3-yl)methyl)-6-methyl-7-(1-methyl-1H-pyrazol-5-yl)pyrrolo[1,2-b]pyridazine-5-carboxamide] | 100 to 1000 nM | 100 to 1000 nM |  |  | 
Cc1cc(C)c(CNC(=O)c2c(C)c(-c3c(C)noc3C)n3ncccc23)c(=O)[nH]1 [Compound 118, N-((4,6-dimethyl-2-oxo-1,2-dihydropyridin-3-yl)methyl)-7-(3,5-dimethylisoxazol-4-yl)-6-methylpyrrolo[1,2-b]pyridazine-5-carboxamide] | < 100 nM | < 100 nM |  |  | 
COc1cc(C)[nH]c(=O)c1CNC(=O)c1c(C)c(-c2c(C)cnn2C)n2ncccc12 [Compound 120, 7-(1,4-dimethyl-1H-pyrazol-5-yl)-N-((4-methoxy-6-methyl-2-oxo-1,2-dihydropyridin-3-yl)methyl)-6-methylpyrrolo[1,2-b]pyridazine-5-carboxamide] | 100 to 1000 nM | 100 to 1000 nM |  |  | 
Cc1cc(C)c(CNC(=O)c2c(C)c(C(=O)N3CCN(S(C)(=O)=O)CC3)n3ncccc23)c(=O)[nH]1 [Compound 126, N-((4,6-dimethyl-2-oxo-1,2-dihydropyridin-3-yl)methyl)-6-methyl-7-(4-(methylsulfonyl)piperazine-1-carbonyl)pyrrolo[1,2-b]pyridazine-5-carboxamide] |  | 1000 to 10000 nM |  |  | 
Cc1cc(C)c(CNC(=O)c2c(C)c(C(C)C3CCN(CC(C)(C)O)CC3)n3ncccc23)c(=O)[nH]1 (stereo not drawn) [Compound 128, N-((4,6-dimethyl-2-oxo-1,2-dihydropyridin-3-yl)methyl)-7-(1-(1-(2-hydroxy-2-methylpropyl)piperidin-4-yl)ethyl)-6-methylpyrrolo[1,2-b]pyridazine-5-carboxamide] |  | < 100 nM |  |  | < 400 nM
CCN(C)C(C)c1c(C)c(C(=O)NCc2c(OC)cc(C)[nH]c2=O)c2cccnn12 (stereo not drawn) [Compound 131, 7-(1-(ethyl(methyl)amino)ethyl)-N-((4-methoxy-6-methyl-2-oxo-1,2-dihydropyridin-3-yl)methyl)-6-methylpyrrolo[1,2-b]pyridazine-5-carboxamide] |  | 100 to 1000 nM |  |  | 
